Assay results reported in patent US20230373972A1, “PIPERAZINE DERIVATIVE, PREPARATION METHOD THEREFOR AND USE THEREOF” (Zhejiang Hisun Pharmaceutical Co., Ltd., priority 2020, published 2023).
Like-named read-outs stand apart in the source and are kept apart here.

How the values were obtained:
[1] = target: T1, Native human Factor XIa protease (Homo sapiens, UniProt P03951); assay: Inhibition of activity of Factor XIa protease (chromogenic substrate S-2366); assay type: biochemical; conditions: S-2366 1 mM, 37° C. 10 minutes, absorption at 405 nm
T1 construct: The Native human Factor XIa protease was purchased from Abcam; purchased Abcam ab62411
How it was run: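 Native human Factor XIa (final […]) in 100 mM Tris-HCl, 200 mM NaCl, 0.02% Tween 20, pH 7.4, preincubated with compound 5 min on ice; 1 mM S-2366 added, 10 min at 37° C. Absorbance at 405 nm versus 0.1% DMSO control; IC50 by nonlinear regression, compound 10,000 nM to […] final.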

human plasma = assay: In-vitro anticoagulation on human plasma (APTT kit, coagulation time); conditions: concentration of the compound when the coagulation time (APTT) was prolonged twice
[2] = Pharmacokinetics in SD rat; assay type: in vivo; conditions: male, plasma; for AUC(0-t): read-out: Curve area AUC0-t; for half-life: read-out: Half-life period T1/2(h) (converted); for bioavailability: intragastric 10 mg/kg vs injection 1 mg/kg, read-out: Bioavailability F(%); for Cmax: read-out: Blood concentration Cmax
Method: Taking a SD rat as a test animal, the SD rat was administrated with the compound of the present invention by intravenous injection and/or intragastric administration, and drug concentrations in plasma at different times were determined by a IC/MS/MS method to study pharmacokinetic characteristics of the compound of the present invention in the SD rat.
SD rats, male, 195 g to 235 g, 6 weeks old to 8 weeks old, purchased from Shanghai JieSiJie Laboratory Animal Co., Ltd.
Preparation of drug administrated by intravenous injection: a proper amount of compound to be tested was added to a proper amount of DMAC; (30% Soltol HS 15): Saline=10%: 10%: 80% (v/v/v), and shaken in a vortex manner, so as to prepare a final solution with a concentration of 0.5 mg/mL.
Preparation of drug administrated by intragastric administration: a proper amount of compound to be tested was added to a proper amount of DMAC: (30% Soltol HS 15): Saline=10%: 10%: 80% (v/v/v), and shaken in a vortex manner, so as to prepare a final solution with a concentration of 1 mg/mL.
SD rats were divided into an intravenous injection group of the compound to be tested (3 rats/group) and an intragastric administration group (3 rats/group) of the compound to be tested.
Intravenous injection group: the drug was administrated by dorsalis pedis vein injection (according to a dosage of 1 mg/kg and a volume of 2 mL/kg) without fasting.
Intragastric administration group: the drug was administrated by intragastric administration (according to a dosage of 10 mg/kg and a volume of 10 mL/kg) after fasting overnight, and food was taken 4 hours after administration.
Intravenous injection group: about 150 μL of blood was collected into an EDTA-K2 anticoagulant tube through a jugular vein 0.083 hour, 0.25 hour, 0.5 hour, 1 hour, 2 hours, 4 hours, 8 hours and 24 hours after administration.
Intragastric administration group; about 150 μL of blood was collected into an EDTA-K2 anticoagulant tube through a jugular vein 0.25 how, 0.5 hour, 1 hour, 2 hours, 4 hours, 8 hours and 24 hours after administration.
The blood sample was stored in wet ice first, and plasma was centrifugally separated within 15 minutes after sampling (centrifugation conditions: 2,000 g, 4° C., 5 minutes). The collected upper plasma was stored at −70° C. before analysis.
Contents of the compound to be tested in rat plasma after intravenous injection and intragastric administration were determined by LC-MS/MS.

[3] = iv, injection administration 1 mg/kg
[4] = po, intragastric administration 10 mg/kg

T1 sequence (P03951 388-625 limits assumed): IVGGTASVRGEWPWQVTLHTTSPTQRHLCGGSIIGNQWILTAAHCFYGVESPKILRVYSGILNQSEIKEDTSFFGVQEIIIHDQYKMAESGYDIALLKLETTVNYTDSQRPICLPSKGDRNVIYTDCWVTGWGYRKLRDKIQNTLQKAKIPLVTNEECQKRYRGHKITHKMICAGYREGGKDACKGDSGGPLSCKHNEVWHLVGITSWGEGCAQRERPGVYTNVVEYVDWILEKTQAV
T1 sequence (P03951 19-387 partner limits assumed): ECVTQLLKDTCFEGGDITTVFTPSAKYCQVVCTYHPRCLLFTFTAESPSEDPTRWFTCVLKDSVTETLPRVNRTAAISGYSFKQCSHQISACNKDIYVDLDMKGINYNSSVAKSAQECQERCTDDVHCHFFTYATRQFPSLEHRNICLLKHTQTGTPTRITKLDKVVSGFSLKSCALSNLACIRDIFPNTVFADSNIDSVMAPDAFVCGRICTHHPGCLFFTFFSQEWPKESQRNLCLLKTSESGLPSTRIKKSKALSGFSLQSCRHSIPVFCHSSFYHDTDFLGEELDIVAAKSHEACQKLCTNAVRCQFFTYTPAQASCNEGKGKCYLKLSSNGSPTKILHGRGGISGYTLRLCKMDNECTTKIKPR

Structure (SMILES): Cn1cc2cc(NC(=O)C(Cc3ccc(F)cc3)N3CC(=O)N(c4cc(Cl)ccc4-n4cc(Cl)nn4)CC3=O)ccc2n1 (stereo in doubt) [Example 99, (R)-2-(4-(5-chloro-2-(4-chloro-1H-1,2,3-triazol-1-yl)phenyl)-2,5-dioxopiperazin-1-yl)-3-(4-fluorophenyl)-N-(2-methyl-2H-indazol-5-yl)propanamide]
- IC50 [1]: 24.4 nM
- CT2 (human plasma): 6.9 µM
- AUC(0-t) [2, 3]: 326 ± 61.2 ng·h/mL
- half-life [2, 3]: 0.595 ± 0.222 h
- bioavailability ([2]; po): 149 ± 48.1%
- Cmax [2, 4]: 1100 ± 498 ng/mL
- AUC(0-t) [2, 4]: 4850 ± 1570 ng·h/mL
- half-life [2, 4]: 0.994 h

Structure (SMILES): NC(=O)c1ccc(NC(=O)C(Cc2ccccc2)N2CC(=O)N(c3cc(Cl)ccc3-n3cc(Cl)nn3)CC2=O)cc1F (centres unmarked) [Example 36, 4-(2-(4-(5-chloro-2-(4-chloro-1H-1,2,3-triazol-1-yl)phenyl)-2,5-dioxopiperazin-1-yl)-3-phenylpropanamido)-2-fluorobenzamide]
- IC50 [1]: 27.1 nM
- CT2 (human plasma): 15.9 µM
- Cmax [2, 4]: 798 ± 868 ng/mL
- AUC(0-t) [2, 4]: 2190 ± 2750 ng·h/mL
- half-life [2, 4]: 1.15 ± 0.0495 h

Structure (SMILES): Cn1cc2cc(NC(=O)C(Cc3ccc(F)cc3)N3CC(=O)N(c4cc(Cl)ccc4-n4cc(Cl)nn4)CC3=O)ccc2n1 (centres unmarked) [Example 47, 2-(4-(5-Chloro-2-(4-chloro-1H-1,2,3-triazol-1-yl)phenyl)-2,5-dioxopiperazin-1-yl)-3-(4-fluorophenyl)-N-(2-methyl-2H-indazol-5-yl)propanamide]
- IC50 [1]: 45.2 nM
- CT2 (human plasma): 9.3 µM
- Cmax [2, 4]: 2860 ± 268 ng/mL
- AUC(0-t) [2, 4]: 12200 ± 3190 ng·h/mL
- half-life [2, 4]: 2.13 ± 0.18 h

Structure (SMILES): Cn1cc2cc(NC(=O)C(Cc3ccccc3)N3CC(=O)N(c4cc(Cl)ccc4-n4cc(Cl)nn4)CC3=O)ccc2n1 (centres unmarked) [Example 25, 2-(4(5-chloro-2-(4-chloro-1H-1,2,3-triazol-1-yl)phenyl)-2,5-dioxopiperazin-1-yl)-N-(2-methyl-2H-indazol-5-yl)-3-phenylpropanamide]
- IC50 [1]: 14.8 nM
- CT2 (human plasma): 6.6 µM
- AUC(0-t) [2, 3]: 431 ± 117 ng·h/mL
- half-life [2, 3]: 0.818 ± 0.37 h
- bioavailability ([2]; po): 80.4 ± 28.5%
- Cmax [2, 4]: 1390 ± 521 ng/mL
- AUC(0-t) [2, 4]: 3460 ± 1230 ng·h/mL
- half-life [2, 4]: 0.895 ± 0.0751 h

Structure (SMILES): Cn1ccc(CC(C(=O)Nc2ccc3nn(C)cc3c2)N2CC(=O)N(c3cc(Cl)ccc3-n3cc(Cl)nn3)CC2=O)n1 (centres unmarked) [Example 111, 2-(4-(5-chloro-2-(4-chloro-1H-1,2,3-triazol-1-yl)phenyl)-2,5-dioxopiperazin-1-yl)-3-(1-methyl-1H-pyrazol-3-yl)-N-(2-methyl-2H-indazol-5-yl)propanamide]
- IC50 [1]: 45.3 nM
- CT2 (human plasma): 19.6 µM
- Cmax [2, 4]: 1420 ± 703 ng/mL
- AUC(0-t) [2, 4]: 2560 ± 409 ng·h/mL
- half-life [2, 4]: 2.37 ± 1.21 h

Structure (SMILES): COCCC(C(=O)Nc1ccc2nn(C)cc2c1)N1CC(=O)N(c2cc(Cl)ccc2-n2cc(Cl)nn2)CC1=O (centres unmarked) [Example 38, 2-(4-(5-Chloro-2-(4-chloro-1H-1,2,3-triazol-1-yl)phenyl)-2,5-dioxopiperazin-1-yl)-4-methoxy-N-(2-methyl-2H-indazol-5-yl)butanamide]
- IC50 [1]: 61.4 nM
- CT2 (human plasma): 19.0 µM
- Cmax [2, 4]: 1360 ± 564 ng/mL
- AUC(0-t) [2, 4]: 3080 ± 281 ng·h/mL
- half-life [2, 4]: 2.63 ± 0.172 h

Structure (SMILES): O=C(Nc1ccc2nn(C(F)F)cc2c1)C(Cc1ccccc1)N1CC(=O)N(c2cc(Cl)ccc2-n2cc(Cl)nn2)CC1=O (centres unmarked) [Example 45, 2-(4-(5-Chloro-2-(4-chloro-1H-1,2,3-triazol-1-yl)phenyl)-2,5-dioxopiperazin-1-yl)-N-(2-(difluoromethyl)-2H-indazol-5-yl)-3-phenylpropanamide]
- IC50 [1]: 19.1 nM
- CT2 (human plasma): 11.3 µM
- Cmax [2, 4]: 1170 ± 576 ng/mL
- AUC(0-t) [2, 4]: 4710 ± 2120 ng·h/mL
- half-life [2, 4]: 2.04 ± 1.08 h
